Assay results taken from publication PMC4207660, “Identification and Characterization of Hundreds of Potent and Selective Inhibitors of Trypanosoma brucei Growth from a Kinase-Targeted Library Screening Campaign” (PLoS Neglected Tropical Diseases, 2014).
≈ marks a conversion by molar mass, not a printed value.

Columns and labels:
IKK2 = biological target: T1, IKK2 (Homo sapiens, UniProt O14920); assay: Human kinase selectivity screening: IKK2; assay type: biochemical; details: read-out: IKK2 pIC50 values (converted)
T1 sequence (O14920 1-756): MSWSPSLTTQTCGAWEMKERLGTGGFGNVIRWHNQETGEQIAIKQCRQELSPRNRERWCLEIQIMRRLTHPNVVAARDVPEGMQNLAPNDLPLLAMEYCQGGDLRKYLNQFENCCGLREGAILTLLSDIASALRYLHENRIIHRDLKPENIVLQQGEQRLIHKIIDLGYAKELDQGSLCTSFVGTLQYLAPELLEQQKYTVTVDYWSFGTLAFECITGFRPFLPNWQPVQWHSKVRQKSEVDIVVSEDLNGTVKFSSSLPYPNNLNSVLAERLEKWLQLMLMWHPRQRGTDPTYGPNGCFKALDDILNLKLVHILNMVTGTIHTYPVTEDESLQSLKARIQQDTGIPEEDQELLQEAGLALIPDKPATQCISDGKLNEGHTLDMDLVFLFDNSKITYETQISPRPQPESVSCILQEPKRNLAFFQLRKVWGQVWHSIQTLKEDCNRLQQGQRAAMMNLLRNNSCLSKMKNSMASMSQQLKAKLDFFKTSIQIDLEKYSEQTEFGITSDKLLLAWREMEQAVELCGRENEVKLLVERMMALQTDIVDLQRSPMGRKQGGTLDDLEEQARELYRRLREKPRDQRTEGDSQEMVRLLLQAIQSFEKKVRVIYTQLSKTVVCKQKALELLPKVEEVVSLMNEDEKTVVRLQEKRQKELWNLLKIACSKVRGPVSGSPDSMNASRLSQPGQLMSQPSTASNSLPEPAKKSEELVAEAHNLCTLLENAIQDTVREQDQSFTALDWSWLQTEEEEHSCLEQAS
Source text: (§1) These kinases were chosen for general selectivity screening owing to their broad representation of the human kinome.

JAK3 = biological target: T2, JAK3 (Homo sapiens, UniProt P52333); assay: Human kinase selectivity screening: JAK3; assay type: biochemical; details: read-out: JAK3 pIC50 values (converted)
T2 sequence (P52333 1-1124): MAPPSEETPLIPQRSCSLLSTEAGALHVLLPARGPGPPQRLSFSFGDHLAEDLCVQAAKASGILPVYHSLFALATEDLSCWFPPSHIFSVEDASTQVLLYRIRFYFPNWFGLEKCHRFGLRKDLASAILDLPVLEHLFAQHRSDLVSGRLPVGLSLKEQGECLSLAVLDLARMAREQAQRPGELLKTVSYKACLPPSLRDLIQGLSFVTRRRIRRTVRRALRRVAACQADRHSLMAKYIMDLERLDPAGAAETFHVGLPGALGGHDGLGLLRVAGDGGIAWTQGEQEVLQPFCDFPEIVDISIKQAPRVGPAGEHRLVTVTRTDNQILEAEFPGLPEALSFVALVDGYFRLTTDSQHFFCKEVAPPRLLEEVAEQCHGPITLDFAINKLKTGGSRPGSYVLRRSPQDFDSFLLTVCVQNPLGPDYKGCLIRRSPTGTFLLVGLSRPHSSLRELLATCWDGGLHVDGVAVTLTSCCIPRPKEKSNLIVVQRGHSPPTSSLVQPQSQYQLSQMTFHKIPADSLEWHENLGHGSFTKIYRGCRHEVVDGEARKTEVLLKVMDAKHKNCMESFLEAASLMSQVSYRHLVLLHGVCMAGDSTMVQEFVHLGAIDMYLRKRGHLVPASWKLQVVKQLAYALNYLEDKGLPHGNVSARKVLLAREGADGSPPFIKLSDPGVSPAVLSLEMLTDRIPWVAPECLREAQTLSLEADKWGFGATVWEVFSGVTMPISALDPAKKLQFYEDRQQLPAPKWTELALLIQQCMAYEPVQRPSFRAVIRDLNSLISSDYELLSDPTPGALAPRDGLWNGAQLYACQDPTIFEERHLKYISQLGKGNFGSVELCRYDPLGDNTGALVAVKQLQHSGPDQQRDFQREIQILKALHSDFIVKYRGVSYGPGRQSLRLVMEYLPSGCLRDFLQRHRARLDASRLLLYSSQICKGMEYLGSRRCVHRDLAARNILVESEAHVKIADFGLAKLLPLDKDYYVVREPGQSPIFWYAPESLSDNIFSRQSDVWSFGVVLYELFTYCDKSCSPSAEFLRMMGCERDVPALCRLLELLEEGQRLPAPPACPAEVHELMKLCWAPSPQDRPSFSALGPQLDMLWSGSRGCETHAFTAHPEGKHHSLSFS
Source text: as §1

[1] = CLND kinetic solubility assay; assay type: physicochemical; details: phosphate buffered saline, pH 7.4, aqueous buffer, kinetic from dmso stock; Measured; read-out: Aq Sol
Description: 5 µL of 10 mM DMSO stock solution was diluted to 100 µL with pH 7.4 phosphate buffered saline, equilibrated for 1 hour at room temperature, filtered through Millipore MultiscreenHTS-PCF filter plates (MSSL BPC). The filtrate was quantified by suitably calibrated flow injection Chemi-Luminescent Nitrogen Detection.

ITK = biological target: T3, ITK (Homo sapiens, UniProt Q08881); assay: Human kinase selectivity screening: ITK; assay type: biochemical; details: read-out: ITK pIC50 values (converted)
T3 sequence (Q08881 1-620): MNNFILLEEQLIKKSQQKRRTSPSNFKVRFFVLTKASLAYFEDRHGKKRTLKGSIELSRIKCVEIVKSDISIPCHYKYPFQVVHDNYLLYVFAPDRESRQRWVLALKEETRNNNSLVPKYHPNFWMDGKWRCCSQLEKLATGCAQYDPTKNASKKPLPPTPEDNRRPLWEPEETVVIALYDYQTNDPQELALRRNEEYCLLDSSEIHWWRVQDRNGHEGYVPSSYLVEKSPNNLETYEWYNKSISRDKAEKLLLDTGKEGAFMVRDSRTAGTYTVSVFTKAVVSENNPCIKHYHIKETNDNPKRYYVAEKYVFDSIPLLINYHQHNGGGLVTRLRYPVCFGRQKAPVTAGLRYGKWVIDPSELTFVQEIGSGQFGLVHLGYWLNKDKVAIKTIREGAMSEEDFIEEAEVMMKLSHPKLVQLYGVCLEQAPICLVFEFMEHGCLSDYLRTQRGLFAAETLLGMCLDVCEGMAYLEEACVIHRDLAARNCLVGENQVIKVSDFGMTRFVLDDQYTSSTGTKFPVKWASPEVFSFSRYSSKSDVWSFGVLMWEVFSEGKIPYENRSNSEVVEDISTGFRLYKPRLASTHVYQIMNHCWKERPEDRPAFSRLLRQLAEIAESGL
Source text: as §1

SMILES | IC50 (IKK2) [nM] | IC50 (JAK3) [nM] | solubility kinetic at 1 h [1] [µM] | IC50 (ITK) [nM]
Cc1cc(Nc2cc(C3CC3)[nH]n2)nc(N2CCCCC2)n1 [NEU-0001127] | > 25100 | 631 | 265 (≈ 79.1 µg/mL) | 1000
O=S1(=O)Cc2ccc(Nc3nccc(-c4ccc(F)cc4)n3)cc2C1 [NEU-0001142] | 501 | 631 | 1 (≈ 0.355 µg/mL) | > 25100
CCCNc1nc(Nc2cnn(C)c2)c2c(=O)[nH]ccc2n1 [NEU-0001187] | 3980 | 2.51 | 252 (≈ 75.4 µg/mL) | 63.1
CCCCc1nc(Nc2cccc(C)c2)c2c(=O)[nH]ccc2n1 [NEU-0001191] | > 25100 | 200 | 22 (≈ 6.78 µg/mL) | > 25100
CN(C)Cc1ccc(-c2[nH]c3ncc(C#N)cc3c2-c2ccccc2)cc1 [NEU-0001206] | > 25100 | 501 | 17 (≈ 5.99 µg/mL) | 12.6
Cn1cc(-c2cnc3[nH]cc(-c4cccc(C#N)c4)c3c2)cn1 [NEU-0001207] | 2000 | 631 | 12 (≈ 3.59 µg/mL) | 1000
O=C(Nc1ccc(-c2ccnc3[nH]ccc23)s1)C1(Cc2ccccc2)CCCNC1 (stereo not shown) [NEU-0001240] | 501 | 501 | 107 (≈ 44.6 µg/mL) | 316
